These compounds were tested against T1, E-selectin (Homo sapiens, UniProt P16581) (assay: Compound was tested for inhibition of HL60 cell adhesion to recombinant Selectin E IgG fusion protein obtained from transfected COS cells).
T1 sequence (P16581 whole entry): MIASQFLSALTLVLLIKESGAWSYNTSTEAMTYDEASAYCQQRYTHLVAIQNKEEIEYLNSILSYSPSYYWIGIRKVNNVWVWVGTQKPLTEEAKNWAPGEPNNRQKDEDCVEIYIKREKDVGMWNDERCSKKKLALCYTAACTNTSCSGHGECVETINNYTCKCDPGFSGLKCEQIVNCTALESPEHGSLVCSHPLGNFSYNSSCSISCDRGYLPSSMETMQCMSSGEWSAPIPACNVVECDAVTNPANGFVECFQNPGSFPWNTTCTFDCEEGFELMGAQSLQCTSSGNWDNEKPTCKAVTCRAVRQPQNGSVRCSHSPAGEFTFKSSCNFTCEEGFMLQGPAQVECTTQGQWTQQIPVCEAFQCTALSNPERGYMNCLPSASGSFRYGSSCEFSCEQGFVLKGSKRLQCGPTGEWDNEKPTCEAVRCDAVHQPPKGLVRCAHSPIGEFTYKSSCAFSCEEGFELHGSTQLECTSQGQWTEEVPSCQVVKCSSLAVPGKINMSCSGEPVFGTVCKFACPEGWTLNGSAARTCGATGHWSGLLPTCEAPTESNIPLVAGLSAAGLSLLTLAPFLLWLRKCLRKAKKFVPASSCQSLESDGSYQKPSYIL
Type: functional, cell-based, HL-60

Structure (SMILES) | IC50 [µM]
CC(=O)N[C@@H]1[C@H](OCCCCCC/N=C(S)/N=C2\C=CC(=C3c4ccc(O)cc4Oc4cc(O)ccc43)C(C(=O)O)=C2)O[C@@H](CO)[C@@H](O[C@@H]2O[C@@H](CO)[C@H](O)[C@H](O[C@]3(C(=O)O)C[C@@H](O)[C@@H](NC(C)=O)[C@H]([C@H](O)[C@H](O)CO)O3)[C@@H]2O)[C@@H]1O[C@@H]1O[C@@H](C)[C@@H](O)[C@H](O)[C@@H]1O | 650
CC(=O)N[C@@H]1[C@H](OCCCCCCNC(=O)CCC(=O)O)O[C@@H](CO)[C@@H](O[C@@H]2O[C@@H](CO)[C@H](O)[C@H](O[C@]3(C(=O)O)C[C@@H](O)[C@@H](NC(C)=O)[C@H]([C@H](O)[C@H](O)CO)O3)[C@@H]2O)[C@@H]1O[C@@H]1O[C@@H](C)[C@@H](O)[C@H](O)[C@@H]1O | 1150
CC(=O)N[C@@H]1[C@H](OCCCCCCNC(=O)[C@H]2CC[C@H](CN3C(=O)C=CC3=O)CC2)O[C@@H](CO)[C@@H](O[C@@H]2O[C@@H](CO)[C@H](O)[C@H](O[C@]3(C(=O)O)C[C@@H](O)[C@@H](NC(C)=O)[C@H]([C@H](O)[C@H](O)CO)O3)[C@@H]2O)[C@@H]1O[C@@H]1O[C@@H](C)[C@@H](O)[C@H](O)[C@@H]1O | 280
CC(=O)N[C@@H]1[C@H](OCCCCCCN)O[C@@H](CO)[C@@H](O[C@@H]2O[C@@H](CO)[C@H](O)[C@H](O[C@]3(C(=O)O)C[C@@H](O)[C@@H](NC(C)=O)[C@H]([C@H](O)[C@H](O)CO)O3)[C@@H]2O)[C@@H]1O[C@@H]1O[C@@H](C)[C@@H](O)[C@H](O)[C@@H]1O | 1000
CC(=O)N[C@@H]1[C@H](OCCCCCCNC(=O)CCCC[C@@H]2SC[C@@H]3NC(=O)N[C@@H]32)O[C@@H](CO)[C@@H](O[C@@H]2O[C@@H](CO)[C@H](O)[C@H](O[C@]3(C(=O)O)C[C@@H](O)[C@@H](NC(C)=O)[C@H]([C@H](O)[C@H](O)CO)O3)[C@@H]2O)[C@@H]1O[C@@H]1O[C@@H](C)[C@@H](O)[C@H](O)[C@@H]1O | 590
CC(=O)N[C@H]1[C@H]([C@H](O)[C@H](O)CO)O[C@@](O[C@@H]2[C@H](O)[C@H](O[C@H]3[C@H](O[C@@H]4O[C@@H](C)[C@@H](O)[C@H](O)[C@@H]4O)[C@H](NC(C)=O)[C@H](NC(=O)[C@H](C)NC(=O)[C@@H]4CCCN4C(=O)CNC(=O)CNC(=O)[C@@H]4CCCN4C(=O)CN)O[C@H]3CO)O[C@@H](CO)[C@@H]2O)(C(=O)O)C[C@H]1O | 5000
CC(=O)N[C@H]1[C@H]([C@H](O)[C@H](O)CO)O[C@@](O[C@@H]2[C@H](O)[C@H](O[C@H]3[C@H](O[C@@H]4O[C@@H](C)[C@@H](O)[C@H](O)[C@@H]4O)[C@H](NC(C)=O)[C@H](NC(=O)[C@H](C)NC(=O)[C@H](CC(=O)O)NC(=O)CNC(=O)[C@@H](N)CCCN=C(N)N)O[C@H]3CO)O[C@@H](CO)[C@@H]2O)(C(=O)O)C[C@H]1O | > 1000

Source: ChEMBL document CHEMBL1128983, “Synthesis and biological activity of novel sialyl-lewisX conjugates” (Bioorg Med Chem Lett, 1996)
